Reference: ChEMBL document CHEMBL5038569, “Targeting RECQL5 Functions, by a Small Molecule, Selectively Kills Breast Cancer in Vitro and in Vivo” (J Med Chem, 2021)
Active and inactive are the calls of the source. The calls are words filed in the database; no cut-off is given here.

Columns and labels:
[1] = test system: MCF7; assay: Effect on homologous recombinant repair in human MCF7 cells expressing wild type RECQL5 assessed as accumulation of MRE11 protein on chromatin at 20 uM incubated for 4 to 24 hrs by Western blot analysis; type: functional, cell-based; conditions: time 4-24 hrs, TDE = time-dependent effect
[2] = Chronic toxicity in […] mouse assessed as change in stool texture at 100 mg/kg, po administered as single dose via gavage measured for 30 days; type: organism-based; conditions: in vivo, 720 h, time 30 day
[3] = Toxicity in nude mouse xenografted with human MCF7 cells assessed as morphological changes in kidney at 50 mg/kg, po administered via oral gavage and measured after 30 days; type: organism-based; conditions: in vivo, 720 h, time 30 day
[4] = test system: MCF7; assay: Antitumor activity against RECQL5 knock out human MCF7 cells xenografted in nude mouse assessed as reduction in tumor growth at 50 mg/kg, po administered as single dose via gavage measured after 30 days; type: functional, organism-based; conditions: time 30.0 day
[5] = test system: T47D; assay: Induction of DNA damage in RECQL5 knock out human T47D cells assessed as double strand breaks by measuring increase in gamma-H2AX foci formation incubated for 24 hrs by immunofluorescence microscopic analysis; type: functional, cell-based
[6] = test system: MCF7; assay: Cytotoxicity against human MCF7 cells expressing RECQL5-RFP wild type helicase assessed as sensitizing activity by measuring colony survival at 5 to 20 uM measured after 8 to 10 days by clonogenic survival assay; type: functional, cell-based; conditions: dose 5-20 µM, time 8-10 day
[7] = test system: MCF7; assay: Stabilization of RECQL5-RAD51 complex in RECQL5 knock out human MCF7 cells expressing wild type RECQL5-FLAG assessed as increase in RAD51-RECQL5-FLAG pull down at 20 uM measured after 8 hrs by coimmunoprecipitation assay; type: cell-based
[8] = Chronic toxicity in […] mouse assessed as change in behavior at 100 mg/kg, po administered as single dose via gavage measured for 30 days; type: organism-based; conditions: in vivo, 720 h, time 30 day
[9] = test system: MCF7; assay: Inhibition of homologous recombinant repair in RECQL5 knock out human MCF7 cells expressing SceGFP/iGFP mutants assessed as I-SceI induced generation of resected double stand breaks by measuring GFP-expressing cells at 10 uM measured after 48 hrs by flow cytometry analysis; type: functional, cell-based
[10] = test system: MCF7; assay: Reversal of RECQL5 knock out resistance phenotype in human MCF7 cells expressing RECQL5-RFP assessed as reduction in cell viability at 6 to 25 uM measured after 72 hrs by MTT assay; type: functional, cell-based; conditions: dose 6-25 µM
[11] = test system: MCF7; assay: Inhibition of homologous recombinant repair in RECQL5 knock out human MCF7 cells assessed as stabilization of RAD51-RECQL5 interaction by measuring increase in RAD51 foci formation at 20 uM measured after 4 to 24 hrs by immunofluorescence microscopic analysis; type: functional, cell-based; conditions: time 4-24 hrs
[12] = test system: MCF7; assay: Induction of DNA damage in human MCF7 cells expressing wild type RECQL5 assessed as double strand breaks by measuring increase in phosphorylation of CHK2 at T68 residue at 20 uM measured up to 24 hrs by Western blot analysis; type: functional, cell-based; conditions: time hrs <=24
[13] = test system: MCF7; assay: Reversal of RECQL5 knock out resistance phenotype in human MCF7 cells expressing RFP assessed as reduction in cell viability at 6 to 25 uM measured after 72 hrs by MTT assay; type: functional, cell-based; conditions: dose 6-25 µM
[14] = test system: MCF7; assay: Induction of DNA damage in human MCF7 cells expressing wild type RECQL5 assessed as double strand breaks by measuring increase in gamma-H2AX foci formation incubated for 24 hrs by immunofluorescence microscopic analysis; type: functional, cell-based; conditions: dose 0-20 µM
[15] = test system: T47D; assay: Cytotoxicity against ER/PR-positive HER2-negative CRISPR/Cas9 engineered human T47D cells expressing wild type RECQL5 and p53 mutant assessed as reduction in colony formation measured after 8 to 10 days by clonogenic survival assay; type: functional, cell-based; conditions: time 8-10 day
[16] = test system: MCF7; assay: Cytotoxicity against human MCF7 cells with shRNA-mediated RECQL5 depletion assessed as reduction in cell viability at 6 to 25 uM measured after 8 to 10 days by clonogenic survival assay; type: functional, cell-based; conditions: dose 6-25 µM, time 8-10 day
[17] = test system: MCF7; assay: Induction of DNA damage in human MCF7 cells expressing wild type RECQL5 assessed as double strand breaks by measuring increase in phosphorylation of p53 at S15 residue at 20 uM measured up to 24 hrs by Western blot analysis; type: functional, cell-based; conditions: time hrs <=24
[18] = test system: MCF7; assay: Induction of apoptosis in human MCF7 cells expressing wild type RECQL5 assessed as fold increase in cell death at 20 uM measured after 72 hrs by propidium iodide/RNase A staining based flow cytometric analysis relative to control; type: functional
[19] = Inhibition of full length His-tagged human RECQL5 expressed in Escherichia coli incubated for 15 mins by fluorescence based assay
[20] = test system: MCF7; assay: Induction of DNA damage in RECQL5 knock out human MCF7 cells assessed as double strand breaks by measuring increase in phosphorylation of ATR at S428 residue at 20 uM measured up to 24 hrs by Western blot analysis; type: functional, cell-based; conditions: time hrs <=24
[21] = test system: MCF7; assay: Induction of cell sensitization to cisplatin in cisplatin-resistant human MCF-7 cells assessed as reduction in colony formation at 5 uM measured after 8 to 10 days by clonogenic survival assay; type: functional, cell-based; conditions: time 8-10 day
[22] = test system: MCF7; assay: Induction of DNA damage in RECQL5 knock out human MCF7 cells assessed as double strand breaks by measuring increase in phosphorylation of RPA2 at 20 uM measured after 4 to 24 hrs by Western blot analysis; type: functional, cell-based; conditions: time 4-24 hrs
[23] = test system: MCF7; assay: Effect on homologous recombinant repair in RECQL5 knock out human MCF7 cells assessed as accumulation of RAD50 protein on chromatin at 20 uM incubated for 4 to 24 hrs by Western blot analysis; type: functional, cell-based; conditions: time 4-24 hrs
[24] = test system: MCF7; assay: Effect on homologous recombinant repair in human MCF7 cells expressing wild type RECQL5 assessed as accumulation of NBS1 protein on chromatin at 20 uM incubated for 4 to 24 hrs by Western blot analysis; type: functional, cell-based; conditions: time 4-24 hrs, TDE = time-dependent effect
[25] = Toxicity in […] mouse assessed as fold change in spleen cell count at 100 mg/kg, po administered as single dose via gavage measured after 30 days relative to control; type: organism-based; conditions: in vivo, 720 h, time 30 day
[26] = test system: MCF7; assay: Induction of DNA damage in RECQL5 knock out human MCF7 cells assessed as double strand breaks by measuring increase in phosphorylation of CHK2 at T68 residue at 20 uM measured up to 24 hrs by Western blot analysis; type: functional, cell-based; conditions: time hrs <=24
[27] = test system: MCF7; assay: Induction of DNA damage in RECQL5 knock out human MCF7 cells assessed as double strand breaks by measuring increase in gamma-H2AX foci formation incubated for 24 hrs by immunofluorescence microscopic analysis; type: functional, cell-based
[28] = test system: MCF7; assay: Effect on NHEJ-mediated double strand break repair in human MCF7 cells expressing wild type RECQL5 assessed as accumulation of DNA-dependent protein kinase on chromatin at 20 uM measured up to 24 hrs by Western blot analysis; type: cell-based; conditions: time hrs <=24
[29] = Toxicity in nude mouse xenografted with human MCF7 cells assessed as morphological changes in lungs at 50 mg/kg, po administered via oral gavage and measured after 30 days; type: organism-based; conditions: in vivo, 720 h, time 30 day
[30] = test system: MCF7; assay: Effect on NHEJ-mediated double strand break repair in human MCF7 cells expressing wild type RECQL5 assessed as accumulation of KU80 on chromatin at 20 uM measured up to 24 hrs by Western blot analysis; type: cell-based; conditions: time hrs <=24

Q: With O=C(Nc1cc(C(F)(F)F)cc(C(F)(F)F)c1)N[C@@H](c1ccccc1)c1nnc(SCc2ccccc2)o1 as the compound, how does the Activity [1] read?
A: Tde

Q: And the Activity [2]?
A: Non-Toxic

Q: What about the Activity [3] of the same compound?
A: Non-Toxic

Q: What about the Activity [4] of the same compound?
A: inactive

Q: And the Activity [5]?
A: inactive

Q: What about the Activity [6] of the same compound?
A: Active

Q: And the Activity [7]?
A: Active

Q: And the Activity [8]?
A: Non-Toxic

Q: And the inhibition [9]?
A: inactive

Q: And the Activity [10]?
A: Active

Q: And the inhibition [11]?
A: inactive

Q: What about the Activity [12] of the same compound?
A: Active

Q: What about the Activity [13] of the same compound?
A: inactive

Q: What about the Activity [14] of the same compound?
A: Dose-Dependent Effect

Q: And the Activity [15]?
A: Active

Q: And the Activity [16]?
A: inactive

Q: What about the Activity [17] of the same compound?
A: Active

Q: And the “fold change (FC)” value [18]?
A: 2.5

Q: And the IC50 [19]?
A: 46.3 nM

Q: And the Activity [20]?
A: inactive

Q: And the Activity [21]?
A: Active

Q: And the Activity [22]?
A: inactive

Q: And the Activity [23]?
A: inactive

Q: And the Activity [24]?
A: Tde

Q: And the “fold change (FC)” value [25]?
A: 1.03

Q: What about the Activity [26] of the same compound?
A: inactive

Q: What about the Activity [27] of the same compound?
A: inactive

Q: What about the Activity [28] of the same compound?
A: inactive

Q: And the Activity [29]?
A: Non-Toxic

Q: What about the Activity [30] of the same compound?
A: inactive
